pIC50: −log10 of the molar value. Converted amounts (≈) assume the structure as drawn.
Experiments:
[1] = test system: poly (dG.dC) - poly (dG.dC); experiment: Ethidium bromide displacement, poly(dG.dC)-poly(dG.dC); assay type: binding; conditions: for Ratio (AT/GC): FI50 poly(dA.dT)-poly(dA.dT) / FI50 poly(dG.dC)-poly(dG.dC); for pIC50: ethidium bromide displacement, 1 μM DNA, 1.26 μM ethidium bromide, pH 7.0, read-out: FI50, poly (dG.dC) - poly (dG.dC)
Protocol: (§1) A 10× Binding solution was prepared by combining 0.93 ml of an aqueous NaCl solution (5M), 2.0 ml of an aqueous Tris HCl (500 mM) solution, 0.1 ml of an EDTA solution (500 mM) and 46.97 ml of water. The resultant solution was 93 mM in NaCl, 20 mM in Tris HCl, and 1 mM in EDTA. Stock DNA solution were prepared as follows: Poly (dG·dC)-(dG·dC) (ε254=8.4/mM; 27-7910-02), poly(dA·dT)-(dA·dT) (ε262=6.6/mM; 27-7870-02), and lambda DNA (ε260-7.0/mM; 27-4111-01) were purchased from Pharmacia. Solutions were prepared by resuspending either poly (dG·dC)-(dG·dC) or poly(dA·dT)-(dA·dT)in 1 ml of 10× DNA Binding Solution. Lambda DNA is already in solution as purchased.
(§2) Poly (dG·dC)-(dG·dC), poly(dA·dt)-(dA·dt) and lambda DNA concentrations were determined as follows: 980 μl of 10× DNA Binding Solution was pipetted into a 1 ml cuvette. A blank was run on the UV spectrophotometer. 20 μl of the DNA stock of unknown concentration was then added into the cuvette. The sample was then scanned between 210 nm to 500 nm and the absorbance recorded at 254 nm for poly(dG·dC)-(dG·dC), at 262 nm for poly(dA·dT)-(dA·dT) and at 260 nm for lambda DNA. The solution was transferred to a clean tube. This procedure was followed for three different solutions with the absorbance taken as the average of the three. The concentration of poly(dG·dC)-(dG·dC) stock was calculated to be A254 /8.4×1000 (in μM). The concentration of poly(dA·dT)-(dA·dT) stock was calculated to be A262 /6.6×1000 (in μM). The concentration of lambda DNA stock was calculated to be A260 /7.0×1000 (in μM).
(§3) The binding of the bis-naphthalimides to DNA and to synthetic polynucleotide duplexes was determined by an ethidium bromide displacement assay that measures the reduction of fluorescence when ethidium bromide is displaced from DNA (Baguley, 1981). The fluorescence intensity of a 3 ml solution containing 9.3 mM NaCl, 2 mM Tris-HCl (pH 7.0), 100 μM EDTA, 1 μM DNA (in nucleotides) and 1.26 μM ethidium bromide in a quartz cuvette was measured at the excitation (546 nm) and emission (600 nm) wavelengths on a Shimadzu RF5000U spectrofluorometer. Graded concentrations of agent were then added and the fluorescence intensity was measured. The concentration of compound required to reduce the fluorescence intensity by 50% of that of control (FI50) was determined. Therefore, the lower the FI50 the stronger the binding affinity a particular compound has for DNA.
(§4) The ability of bis-naphthalimides of the present invention and the known anti-cancer agents compound 22 and DMP840, (R,R)-2,2'[1,2-ethanediylbis[imino(1-methyl-2,1-ethanediyl)]]-bis[5-nitro- 1H benz[de]isoquinoline-1,3-(2H)dione]dimethanesulfonate, to bind to DNA and to synthetic oligonucleotide duplexes was measured using an ethidium bromide displacement assay. Ethidium bromide, a known DNA intercalator, has no fluorescence in the absence of DNA; however, fluorescence intensity increases when ethidium bromide binds to DNA. The ethidium bromide displacement assay measures the decrease in fluorescence intensity caused by DNA-bound ethidium bromide with DNA interacting agents.

Lambda DNA = experiment: Ethidium bromide displacement, lambda DNA; assay type: binding; conditions: 1 μM DNA, 1.26 μM ethidium bromide, pH 7.0, read-out: FI50, Lambda DNA
Protocol: as §1, §2, §3, §4

[2] = test system: Murine B16 melanoma cell line; experiment: In vitro growth inhibition (MTT), B16 melanoma; assay type: cell-based; conditions: for pIC50: Mus musculus, B16, 72 h, MTT, 3 days
Description: (§5) P388 murine leukemic cell line was obtained from the DCT Tumor Repository (National Cancer Institute, Frederick Cancer Research and Development, Frederick Md. 21702). HT29 Human Colon Carcinoma cell line was obtained from the American Type Culture Collection (12301 Parklawn Drive, Rockville, Md. 20852). B16 Melanoma cell line was obtained from DuPont Merck Pharmaceutical Company (Glenolden, Pa. 19036). MCF-7 Human Breast Carcinoma cell line was a gift from Dr. K. Osborne (Department of Medicine, The University of Texas Health Science Center at San Antonio, San Antonio, Tex. 78284). All cell lines were incubated at 37° C. in a humidified atmosphere of 5% CO2 -95% air. Murine B16 melanoma cell line was grown in RPMI 1640 medium supplemented with 10% heat-inactivated fetal bovine serum, 2 mM L-glutamine, 50 units/ml penicillin, 50 μg/ml streptomycin, 25 μg/ml gentamycin, 0.75% sodium bicarbonate, 10 mM HEPES buffer (pH 7.4), and 0.06 mg/ml AntiPPLO. Murine P388 leukemic and the human HT-29 colon adenocarcinoma cell lines were maintained in RPMI 1640 medium supplemented with 10% heat-inactivated fetal bovine serum. MCF-7M human breast adenocarcinoma was maintained in IMEM medium supplemented with 5% non heat-inactivated fetal bovine serum and 1 nM insulin.
(§6) Exponentially growing cells (1-2×10^3 cells, unless specified otherwise) in 0.1 ml medium were seeded on day 0 in a 96-well microtiter plate. On day 1, 0.1 ml aliquots of medium containing graded concentrations of test compounds were added in duplicate to the cell plates. After incubation at 37° C. in a humidified incubator for 3 days (P388, B16) or 6 days (HT-29, MCF-7M), the plates were centrifuged briefly and 100 μl of the growth medium was removed. Cell cultures were incubated with 50 μl of 3-(4,5-dimethylthiazol-2-yl)-2,5-diphenyl-tetrazolium bromide [MTT, 1 mg/ml in Dulbecco's phosphate buffered saline (PBS)] for 4 hr at 37° C. The resulting purple formazan precipitate was solubilized with 200 μl of 0.04N HCl in isopropyl alcohol. Absorbance was monitored in a BioRad Model 3550 Microplate Reader at a test wavelength of 570 nm and a reference wavelength of 630 nm. The absorbance was transferred to a PC 486 computer. The IC50 values were determined by a computer program (EZ-ED50) that fit all of the data to the following four-parameterlogistic equation:
(§7) Y=((Am -Ao)/(1+(X/IC50)^n))+Ao
(§8) where Am is the absorbance of control cells, Ao is the absorbance of cells in the presence of highest agent concentration, Y is the observed absorbance, X is the agent concentration, IC50 is the concentration of agent that inhibits the cell growth by 50% of control cells (based on the absorbance) and n is the slope of the curve.

[3] = target: poly (dA.dT) - poly (dA.dT); experiment: Ethidium bromide displacement, poly(dA.dT)-poly(dA.dT); assay type: binding; conditions: 1 μM DNA, 1.26 μM ethidium bromide, pH 7.0, read-out: FI50, poly (dA.dT) - poly (dA.dT)
Protocol: as §1, §2, §3, §4

DNA = experiment: Ethidium bromide displacement, DNA binding in general
Protocol: as §3
as §4, with “The ethidium bromide displacement assay measures the decrease in fluorescence intensity caused by DNA-bound ethidium bromide with DNA interacting agents.” left out

[4] = test system: P388 murine leukemic cell line; experiment: In vitro growth inhibition (MTT), P388 leukemia; assay type: cell-based; conditions: Mus musculus, P388, 72 h, 3 days
Description: as §5, §6, §7, §8

[5] = test system: DLD-2 human colon adenocarcinoma; conditions: in vivo; cited from earlier work
[6] = cited from earlier work
B16 murine melanoma = experiment: B16 melanoma in vivo, survival of B6D2F1 mice; conditions: q.d. × 5, i.p.; for T/C: mean survival treated/control
Protocol: B6D2F1 mice received i.p. inocula of B16 murine melanoma brei prepared from B16 tumors growing subcutaneously in mice (day 0). On day 1, rumored mice were treated with drugs or vehicle control; the route of drug administration and schedule were selected as appropriate for the study in question. If dosing information for agents was not available, the maximum tolerated dose (MTD) was determined in initial dose finding experiments in non-tumored mice. In a typical experiment, drugs were given at their MTD and 1/2 MTD doses i.p. on a daily×5 schedule.
The mean survival times of all groups were calculated, and results were expressed as mean survival of treated mice/mean survival of control mice (T/C)×100%. A T/C value of 150 means that the mice in the treated group lived 50% longer than those of the control group; this is sometimes referred to as the increase in life space, or ILS value.
Mice that survived for 60 days were considered long term survivors, or cures, in the B16 model. The universally accepted cut-off for activity in this model, which has been used for years by the National Cancer Institute, is T/C=125.
Statistics were performed on the data using primarily the log rank p-value test.

[7] = test system: MCF-7 Human Breast Carcinoma cell line; experiment: In vitro growth inhibition (MTT), MCF-7 breast carcinoma; assay type: cell-based; conditions: Homo sapiens, MCF7, 144 h, 6 days
Description: as §5, §6, §7, §8

[8] = in vivo; cited from earlier work
LX-1 lung carcinoma = conditions: in vivo; cited from earlier work
[9] = test system: solid tumor xenografts, human and murine leukemia, doxorubicin resistant cell lines, colon carcinoma cells; conditions: cited from earlier work
[10] = test system: MX-1 human breast carcinoma; conditions: in vivo; cited from earlier work
[11] = human, in vivo; cited from earlier work
topoisomerase II = conditions: cited from earlier work
[12] = human, in vivo; cited from earlier work; remark: listed apart in the source
[13] = test system: SV40 DNA (Form I, negatively supercoiled); conditions: comparison with compound 21; no own test described; cited from earlier work
B16 melanoma = conditions: cited from earlier work

O=C1c2cccc3cc([N+](=O)[O-])cc(c23)C(=O)N1CCOCCOCCN1C(=O)c2cccc3cc([N+](=O)[O-])cc(c23)C1=O [Compound 19, 5-[2-(3-Nitronaphthalene-1,8-dicarboximido)ethoxy]-1-(3-nitronaphthalene-1,8-dicarboximido)-3-oxapentane]
Ratio (AT/GC) [1]: 1.7
pIC50 [1]: 4.31
pIC50 (Lambda DNA): 4.25
anticancer activity against B16 melanoma in vitro (in words) [2]: potent anticancer activity against this melanoma type
pIC50 [2]: 7.29
pIC50 [3]: 4.08
DNA binding (in words) (DNA): did not bind to DNA

C[C@H](CNCCNC[C@@H](C)N1C(=O)c2cccc3cc([N+](=O)[O-])cc(c23)C1=O)N1C(=O)c2cccc3cc([N+](=O)[O-])cc(c23)C1=O [DMP840, (R,R)-2,2'[1,2-ethanediylbis[imino (1-methyl-2,1-ethanediyl)]]-bis[5-nitro-1H-benz[de]isoquinoline-1,3-(2H)-dione]dimethanesulfonate]
pIC50 [4]: 8.22
anti-tumor activity, DLD-2 (in words) [5]: anti-tumor efficacy in vivo
Ratio (AT/GC) [1]: 35.2
pIC50 [1]: 7.04
water solubility [6]: 3400 µg/mL (≈ 5.44 mM)
60-Day Survivors (B16 murine melanoma; 5 mg/kg): 0
Wt. Ch. (%) (Day 7) (B16 murine melanoma; 5 mg/kg): +4.6%
T/C (B16 murine melanoma; 5 mg/kg): 156%
60-Day Survivors (B16 murine melanoma; 10 mg/kg): 0
Wt. Ch. (%) (Day 7) (B16 murine melanoma; 10 mg/kg): -0.33%
T/C (B16 murine melanoma; 10 mg/kg): 179%
pIC50 (Lambda DNA): 7.14
pIC50 [7]: 8.15
irreversible toxicities (in words) [8]: no irreversible toxicities
pIC50 [2]: 7.57
anti-tumor efficacy, LX-1 (in words) (LX-1 lung carcinoma): anti-tumor efficacy in vivo
pIC50 [3]: 5.48
anti-tumor efficacy in vivo (in words) [9]: anti-tumor efficacy in vivo
anti-tumor activity, MX-1 (in words) [10]: anti-tumor efficacy in vivo

COc1cccc2c1C(=O)c1c(O)c3c(c(O)c1C2=O)C[C@@](O)(C(=O)CO)C[C@@H]3O[C@H]1C[C@H](N)[C@H](O)[C@H](C)O1 [Doxorubicin]
cardiomyopathy (in words) [11]: unusual cardiomyopathy

CN(C)CCN1C(=O)c2cccc3cc(N)cc(c23)C1=O [amonafide]
inhibition of topoisomerase II (in words) (topoisomerase II): inhibit topoisomerase II

COc1cc(NS(C)(=O)=O)ccc1Nc1c2ccccc2nc2ccccc12 [amsacrine]
clinical anti-tumor activity (in words) [12]: exhibit clinical anti-tumor activity

O=C1c2c(O)cccc2-c2nn(CCNCCO)c3ccc(NCCNCCO)c1c23 [DuP 941]
clinical anti-tumor activity (in words) [12]: exhibit clinical anti-tumor activity

N.N.[Cl][Pt][Cl] [Cisplatin]
effect on DNA conformation (in words) [13]: does not show such an effect and causes unwinding only after prolonged incubation

CS(=O)(=O)O.O=C1c2cccc3cc([N+](=O)[O-])cc(c23)C(=O)N1CCCCNCCCN1C(=O)c2cccc3cc([N+](=O)[O-])cc(c23)C1=O [XB596]
anti-tumor activity, DLD-2 (in words) [5]: demonstrated in vivo anti-tumor activity
water solubility [6]: 45 µg/mL
activity against B16 melanoma (in words) (B16 melanoma): ineffective against B16 melanoma
anti-tumor activity, MX-1 (in words) [10]: demonstrated in vivo anti-tumor activity

COc1cccc2c1C(=O)c1c(O)c3c(c(O)c1C2=O)C[C@@](O)(C(C)=O)C[C@@H]3O[C@H]1C[C@H](N)[C@H](O)[C@H](C)O1 [daunorubicin]
cardiomyopathy (in words) [11]: unusual cardiomyopathy

Reference: patent publication US5561042A, “Diamine platinum naphthalimide complexes as antitumor agents” (Cancer Therapy and Research Center, priority 1995, dated 1996)
